We go through one compound from ChEMBL document CHEMBL3351929, “Halenaquinone inhibits RANKL-induced osteoclastogenesis” (Bioorg Med Chem Lett, 2014).

In experiment [1] the test system is RAW264. The experiment is described as follows: Inhibition of sRANKL-induced TRAP activity in mouse RAW264 cells at 20 uM by p-nitrophenolate release based TRAP assay. It counts as functional, cell-based.
The species named for experiment [2] is Mus musculus. The experiment is described as follows: Inhibition of sRANKL-induced AKT phosphorylation in mouse RAW264 cells at 20 uM pre-treated for 2 hrs before sRANKL stimulation measured 15 mins after sRANKL stimulation by Western blotting method. It counts as cell-based.
Experiment [3] in a line: Inhibition of chymotrypsin-like activity of proteasome in rat liver using Suc-Leu-Leu-Val-Tyr-MCA fluorogenic substrate.
For experiment [4], the system named is RAW264. The experiment is described as follows: Inhibition of sRANKL-induced osteoclastogenesis in mouse RAW264 cells assessed as reduction in TRAP-positive multinuclear osteoclasts formation at 20 uM incubated for 4 days by TRAP assay. It counts as functional, cell-based.
Experiment [5] can be described thus: Inhibition of sRANKL-induced TRAP activity in mouse RAW264 cells by p-nitrophenolate release based TRAP assay. In kind it is functional, cell-based. The conditions noted are these: RAW264.7.
For experiment [6], the species on record is Mus musculus. The experiment is described as follows: Inhibition of sRANKL-induced […] degradation in mouse RAW264 cells at 10 to 50 uM pre-treated for 2 hrs before sRANKL stimulation measured 15 mins after sRANKL stimulation by Western blotting method. In kind it is cell-based.
For experiment [7], the species on record is Mus musculus. The experiment is described as follows: Inhibition of sRANKL-induced […] degradation in mouse RAW264 cells at 20 uM pre-treated for 2 hrs before sRANKL stimulation measured 15 mins after sRANKL stimulation by Western blotting method. It counts as cell-based. In general terms: In western blotting, separated proteins are transferred to a membrane and probed.

Activity calls are given as the source filed them. No cut-off for these calls is given here.

For `C[C@@]12CCC(=O)c3coc(c31)C(=O)c1cc3c(cc12)C(=O)C=CC3=O` [HELENAQUINONE], the inhibition entry in experiment [1], in experiment [2], in experiment [4], in experiment [6] and in experiment [7] was “Active” each time. The figures for the half-inhibitory concentration (IC50) in experiment [3] and in experiment [5] were 0.6 µM and 2 µM, respectively.
